Data on 22 molecules can be found in patent EP4624466A1, “DEGRADER FOR DECOMPOSING CMET PROTEIN, AND PHARMACEUTICAL COMPOSITION COMPRISING SAME” (Innocure Therapeutics, Inc., priority 2022, dated 2024).

Like-named read-outs stand apart in the source and are kept apart here. Bounds are passed on as bounds.

In experiment [1] the target is c-MET (Homo sapiens, UniProt P08581). As to the kind of experiment: c-MET protein degradation (Simple Western), MKN-45. The class given is cell-based. More on the design: assess the resolution of the compound of the present invention for c-MET expressed in cells; endogenous in cells; host or cells: MKN45 (human gastric cancer). The conditions noted are these: c-MET overexpressing gastric cancer cell line MKN-45, treated 24 hours. As for the experimental part:
In order to assess the resolution of the compound of the present invention for c-MET expressed in cells, cells were dispensed in a 12-well plate at a concentration of 2 × 10^5 cells/well, and then gastric cancer cell lines were treated with samples for 24 hours and lung cancer cell lines were treated for 48 hours. Cell lysates were collected using a scraper on ice, centrifuged at 4°C15,000 rpm for 30 min to obtain a protein-containing supernatant. Protein expression was then measured using the Simple Western Automated Western Blot System Abby instrument using 3 µg of protein for each sample. SDS and heat-induced denaturation proteins were separated by molecular weight, attached to capillary, reacted with anti-c-MET or anti-GAPDH antibodies, which are primary antibodies, and then reacted with HRP-conjugated secondary antibodies, and analyzed the protein expression signal with compass software. Protein expression was normalized based on the expression value of GAPDH, and protein development in each sample was measured as a percentage (%) based on 100% of samples treated with 0.1% DMSO carriers, and DC50 (concentration of a compound where 50% protein inhibition is achieved) was calculated from the change in protein expression amount due to compound treatment.

The subject of experiment [2] is MKN-45. As to the kind of experiment: Cell viability / antiproliferative assay (WST-8), MKN-45.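 Also: MKN-45 is a human gastric cancer line overexpressing c-MET, growth inhibition read as WST-8 formazan absorbance at 450 nm after 2 h dye incubation.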 The conditions noted are these: read-out: MKN-45 IC50.
Procedure: c-MET overexpressing human gastric cancer cell lines [MKN45] and [SNU638] were cultured in RPMI medium with 10% fetal bovine serum, penicillin (100U/ml), and streptomycin (100mg/ml), and c-MET exon 14 skipping mutant human gastric cancer cell lines [Hs746T] were cultured in DMEM media. The c-MET overexpressing human lung cancer cell line EBC-1 was cultured in MEM media with the addition of 10% fetal bovine serum, penicillin (100U/ml), and streptomycin (100mg/ml). […] The compound synthesized in accordance with the present invention was prepared with a raw material solution of 10 mM dissolved in DMSO (dimethyl sulfoxide), and was sequentially diluted and processed.
In order to observe the inhibitory activity on cell growth, cells were dispensed in a 96-well plate at a concentration of 5,000 cells/well, and then treated with the compound prepared at various concentrations for 72 hours. The viability of the cells was calculated using GraphicPad Prism 8.0 software by adding 10 ml per well of WST-8 (water soluble tetrazolium salt) sample, which reacts with dehydrogenase present in the electron transport system of mitochondria to produce formazon, incubated for 2 hours, and measured absorbance at 450 nm.
Where [3] appears, read: MKN-45 cells, 72 hours, WST-8, Table 2.
The mark [4] stands for this setting: MKN-45 cells, 72 hours, WST-8, Table 1.

Sequence of c-MET (P08581 25-1390): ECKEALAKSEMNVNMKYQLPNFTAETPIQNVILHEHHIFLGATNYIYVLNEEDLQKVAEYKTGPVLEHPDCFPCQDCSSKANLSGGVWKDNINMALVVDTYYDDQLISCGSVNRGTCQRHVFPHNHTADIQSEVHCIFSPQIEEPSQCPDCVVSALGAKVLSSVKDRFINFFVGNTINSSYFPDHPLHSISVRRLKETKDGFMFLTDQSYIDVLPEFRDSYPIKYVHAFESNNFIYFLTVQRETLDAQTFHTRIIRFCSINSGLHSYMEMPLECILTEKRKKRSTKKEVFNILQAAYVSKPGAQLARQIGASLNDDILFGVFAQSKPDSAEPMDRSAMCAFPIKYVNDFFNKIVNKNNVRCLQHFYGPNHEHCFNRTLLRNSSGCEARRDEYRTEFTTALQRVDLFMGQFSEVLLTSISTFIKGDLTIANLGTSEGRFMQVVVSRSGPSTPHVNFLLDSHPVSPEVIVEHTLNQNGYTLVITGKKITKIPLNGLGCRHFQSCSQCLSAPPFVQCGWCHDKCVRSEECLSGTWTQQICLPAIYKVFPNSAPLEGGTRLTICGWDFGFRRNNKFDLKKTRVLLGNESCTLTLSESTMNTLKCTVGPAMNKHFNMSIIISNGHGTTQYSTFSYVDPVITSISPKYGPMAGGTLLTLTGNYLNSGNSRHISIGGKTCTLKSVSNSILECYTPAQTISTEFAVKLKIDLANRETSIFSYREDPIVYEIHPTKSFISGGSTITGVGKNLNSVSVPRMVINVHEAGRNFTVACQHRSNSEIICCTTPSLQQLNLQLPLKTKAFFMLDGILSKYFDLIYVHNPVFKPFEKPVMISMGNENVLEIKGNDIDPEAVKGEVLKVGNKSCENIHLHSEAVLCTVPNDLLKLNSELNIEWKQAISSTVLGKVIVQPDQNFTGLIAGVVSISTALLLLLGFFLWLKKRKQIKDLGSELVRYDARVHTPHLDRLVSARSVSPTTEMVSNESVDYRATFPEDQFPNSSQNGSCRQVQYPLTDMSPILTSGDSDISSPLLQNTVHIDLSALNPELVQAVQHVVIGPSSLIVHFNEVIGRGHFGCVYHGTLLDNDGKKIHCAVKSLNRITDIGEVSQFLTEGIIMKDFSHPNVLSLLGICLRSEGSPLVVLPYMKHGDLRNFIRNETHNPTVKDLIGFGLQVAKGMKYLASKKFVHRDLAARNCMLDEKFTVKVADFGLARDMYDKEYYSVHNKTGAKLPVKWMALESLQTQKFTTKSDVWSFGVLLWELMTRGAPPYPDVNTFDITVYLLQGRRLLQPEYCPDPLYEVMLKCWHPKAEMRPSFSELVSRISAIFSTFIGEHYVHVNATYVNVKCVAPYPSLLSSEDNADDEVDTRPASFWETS

The molecule `N#Cc1cccc(-c2ccc(=O)n(Cc3cccc(-c4ncc(OCC5CCN(C(=O)CCN6CCN(c7ccc8c(=O)n(C9CCC(=O)NC9=O)ncc8c7)CC6)CC5)cn4)c3)n2)c1` (centres unmarked) [ICT-0001199, 3-(1-{[3-(5-{[1-(3-{4-[2-(2,6-dioxopiperidin-3-yl)-1-oxo-1,2-dihydropthalazine-6-yl]piperazine-1-yl}propanoyl)piperidine-4-il]methoxy}pyrimidin-2-yl)phenyl]methyl}-6-oxo-1,6-dihydropyridazine-3-yl)benzonitrile] yielded a 50% degradation concentration (DC50) in experiment [1] (Table 2) of less than 100 nM. Moreover, in experiment [2] (Homo sapiens, MKN-45, 72 h), the IC50 was less than 100 nM.
Regarding `Cc1nn(C2CCC(=O)NC2=O)c(=O)c2ccc(N3CCN(C[C@H]4CCN(CC(=O)N5CCC(COc6cnc(-c7cccc(Cn8nc(-c9cccc(C#N)c9)ccc8=O)c7)nc6)CC5)CO4)CC3)cc12` (some centres unmarked) [ICT-0001254], in experiment [1] (Table 2), the DC50 lay in the range of 100 to 1000 nM. The IC50 in experiment [2] (setting [3]) was less than 100 nM.
`Cc1nn(C2CCC(=O)NC2=O)c(=O)c2ccc(NCCOCCOCC(=O)N3CCC(COc4cnc(-c5cccc(Cn6nc(-c7cccc(C#N)c7)ccc6=O)c5)nc4)CC3)cc12` (centres unmarked) [ICT-0001087] yielded a DC50 in experiment [1] (Table 2) of less than 100 nM. In addition, the IC50 in experiment [2] (Homo sapiens, MKN-45, 72 h) was less than 100 nM.
Turning to `Cc1nn(C2CCC(=O)NC2=O)c(=O)c2cc(F)c(N3CCN(CC4CCN(CC(=O)N5CCC(COc6cnc(-c7cccc(Cn8nc(-c9cccc(C#N)c9)ccc8=O)c7)nc6)CC5)CC4)CC3)cc12` (centres unmarked) [ICT-0001272], the DC50 in experiment [1] (Table 2) was less than 100 nM. In experiment [2] (Homo sapiens, MKN-45, 72 h), the IC50 was less than 100 nM.
In experiment [1] (Table 1), `Cn1cc(-c2cnc3c(nnn3C[C@@H]3CN(c4ncc(-c5ccc(CN6CCN(C(=O)COCCOCCOCCOCCNc7ccc8c(=O)n(C9CCC(=O)NC9=O)ncc8c7)CC6)cc5)cn4)CCO3)n2)cn1` (stereo partly drawn) [ICT-0000939, 3-[6-(15-{4-[(4-{2-[(2S)-2-{[5-(1-methyl-1H-pyrazole-4-yl)-1H-[1,2,3]triazolo[4,5-b]pyrazine-1-yl]methyl}morpholine-4-il]pyrimidine-5-yl}phenyl)methyl]piperazine-1-yl}-15-oxo-4,7,10,13-tetraoxa-1-azpentadecan-1-yl)-1-oxo-1,2-dihydroptalazine-2-yl]piperidin-2,6-dione] showed a DC50 greater than 1000 nM. Further, the IC50 in experiment [2] (setting [4]) lay within 100 to 1000 nM.
In experiment [1] (Table 2), `Cc1nn(C2CCC(=O)NC2=O)c(=O)c2ccc(N3CCC(NC4CCN(CC(=O)N5CCC(COc6cnc(-c7cccc(Cn8nc(-c9cccc(C#N)c9)ccc8=O)c7)nc6)CC5)CC4)CC3)cc12` (centres unmarked) [ICT-0001219] had a DC50 of less than 100 nM. The IC50 in experiment [2] (Homo sapiens, MKN-45, 72 h) is less than 100 nM.
In experiment [1] (Table 2), `N#Cc1cccc(-c2ccc(=O)n(Cc3cccc(-c4ncc(OCC5CCN(C(=O)CCCN6CCN(c7ccc8c(=O)n(C9CCC(=O)NC9=O)ncc8c7)CC6)CC5)cn4)c3)n2)c1` (centres unmarked) [ICT-0001200] returned a 50% degradation concentration (DC50) of less than 100 nM. Further, the IC50 in experiment [2] (Homo sapiens, MKN-45, 72 h) is less than 100 nM.
`Cc1nn(C2CCC(=O)NC2=O)c(=O)c2cc(N3CCC(N4CCN(C(=O)CN5CCC(COc6cnc(-c7cccc(Cn8nc(-c9cccc(C#N)c9)ccc8=O)c7)nc6)CC5)CC4)CC3)ccc12` (centres unmarked) [ICT-0001233, 3-(1-(3-(5-((1-(2-(4-(1-(3-(2,6-dioxopiperidine-3-yl)-1-methyl-4-oxo-3,4-dihydropthalazine-6-yl)piperidine-4-yl)piperazine-1-yl)2-oxoethyl)piperidine-4-il)methoxy)pyrimidine-2-yl)benzyl)6-oxo-1,6-dihydropyridine-3-yl)benzonitrile] yielded a DC50 in experiment [1] (Table 2) of less than 100 nM. In experiment [2] (Homo sapiens, MKN-45, 72 h), the IC50 was less than 100 nM.
Molecule `N#Cc1cccc(-c2ccc(=O)n(Cc3cccc(-c4ncc(OCC5CCN(C(=O)COCCOCCNc6ccc7c(=O)n(C8CCC(=O)NC8=O)ncc7c6)CC5)cn4)c3)n2)c1` (centres unmarked) [ICT-0000986] displayed a DC50 in experiment [1] (Table 2) of less than 100 nM. The IC50 in experiment [2] (Homo sapiens, MKN-45, 72 h) was less than 100 nM.
On to `Cc1nn(C2CCC(=O)NC2=O)c(=O)c2cc(N3CCO[C@H](CN4CCN(CC(=O)N5CCC(COc6cnc(-c7cccc(Cn8nc(-c9cccc(C#N)c9)ccc8=O)c7)nc6)CC5)CC4)C3)ccc12` (stereo partly drawn) [ICT-0001271, 3-(1-(3-(5-((1-(2-(4-(((2R)-4-(3-(2,6-dioxopiperidin-3-yl)-1-methyl-4-oxo-3,4-dihydrophthalazine-6-yl)morpholine-2-il)methyl)piperazine-1-il)acetyl)piperidine-4-il)methoxy)pyrimidine-2-yl)benzyl)6-oxo-1,6-dihydropyridazine-3-yl)benzonitrile], for which the DC50 in experiment [1] (Table 2) was less than 100 nM. Further, the IC50 in experiment [2] (setting [3]) is less than 100 nM.
In experiment [1] (Table 2), `N#Cc1cccc(-c2ccc(=O)n(Cc3cccc(-c4ncc(OCC5CCN(C(=O)COCCOCCOCCOCCNc6ccc7c(=O)n(C8CCC(=O)NC8=O)ncc7c6)CC5)cn4)c3)n2)c1` (centres unmarked) [ICT-0000988, 3-(1-{[3-(5-{[1-(14-{[2-(2,6-dioxopiperidin-3-yl)-1-oxo-1,2-dihydroptalazine-6-yl]amino}-3,6,9,12-tetradecanoyl)piperidin-4-yl]methoxy}pyrimidine-2-yl)phenyl]methyl}-6-oxo-1,6-dihydropyridazine-3-yl)benzonitrile] returned a DC50 of less than 100 nM. For the same molecule, the IC50 in experiment [2] (Homo sapiens, MKN-45, 72 h) was in the range of 100 to 1000 nM.
In the case of `Cn1cc(-c2cnc3c(nnn3C[C@@H]3CN(c4ncc(-c5ccc(CN6CCN(C(=O)CCCCNc7cccc8cnn(C9CCC(=O)NC9=O)c(=O)c78)CC6)cc5)cn4)CCO3)n2)cn1` (stereo partly drawn) [ICT-0000959, 3-{8-[(5-{4-[(4-{2-[(2S)-2-{[5-(1-methyl-1H-pyrazole-4-yl)-1H-[1,2,3]triazolo[4,5-b]pyrazine-1-yl]methyl}morpholine-4-il]pyrimidine-5-yl}phenyl)methyl]piperazine-1-yl}-5-oxopentyl)amino]-1-oxo-1,2-dihydropthalazine-2-yl}piperidine-2,6-dione], in experiment [1] (Table 1), the DC50 is less than 100 nM. In addition, the IC50 in experiment [2] (setting [4]) was less than 100 nM.
`Cc1nn(C2CCC(=O)NC2=O)c(=O)c2ccc(NCCCCCC(=O)N3CCC(COc4cnc(-c5cccc(Cn6nc(-c7cccc(C#N)c7)ccc6=O)c5)nc4)CC3)cc12` (centres unmarked) [ICT-0000990] had a DC50 in experiment [1] (Table 2) of 100 to 1000 nM. Also, the IC50 in experiment [2] (Homo sapiens, MKN-45, 72 h) is 100 to 1000 nM.
“3-(6-(4-((1-(4-(1-(2-((S)-2-((5-(1-methyl-1H-pyrazole-4-yl)-1H-[1,2,3]triazolo[4,5-b]pyrazine-1-yl)methyl)morpholino)pyrimidine-5-il)benzyl)piperidine-4-il)methyl)piperazine-1-yl)piperazine-1-yl)1-oxopthalazine-2(1H)-yl)piperidine-2,6-dione [ICT-0000978]” had a DC50 in experiment [1] (Table 1) of 100 to 1000 nM. In addition, the IC50 in experiment [2] (setting [4]) was less than 100 nM.
In experiment [1] (Table 2), `Cc1nn(C2CCC(=O)NC2=O)c(=O)c2ccc(N3CCN(CCC(=O)N4CCC(COc5cnc(-c6cccc(Cn7nc(-c8cccc(C#N)c8)ccc7=O)c6)nc5)CC4)CC3)cc12` (centres unmarked) [ICT-0001174] returned a DC50 of less than 100 nM. Also, in experiment [2] (Homo sapiens, MKN-45, 72 h), the IC50 is less than 100 nM.
The molecule `Cc1nn(C2CCC(=O)NC2=O)c(=O)c2ccc(N3CCC(CN4CCN(CC(=O)N5CCC(COc6cnc(-c7cccc(Cn8nc(-c9cccc(C#N)c9)ccc8=O)c7)nc6)CC5)CC4)CC3)cc12` (centres unmarked) [ICT-0001213] yielded a DC50 in experiment [1] (Table 2) of less than 100 nM. In addition, in experiment [2] (Homo sapiens, MKN-45, 72 h), the IC50 was less than 100 nM.
`Cc1nn(C2CCC(=O)NC2=O)c(=O)c2ccc(N3CCC(CN4CCN(C(=O)CN5CCC(COc6cnc(-c7cccc(Cn8nc(-c9cccc(C#N)c9)ccc8=O)c7)nc6)CC5)CC4)CC3)cc12` (centres unmarked) [ICT-0001236]: the DC50 in experiment [1] (Table 2) was less than 100 nM. Also, the 50% inhibitory concentration (IC50) in experiment [2] (Homo sapiens, MKN-45, 72 h) was less than 100 nM.
`Cc1nn(C2CCC(=O)NC2=O)c(=O)c2ccc(N3CCO[C@H](CN4CCN(CC(=O)N5CCC(COc6cnc(-c7cccc(Cn8nc(-c9cccc(C#N)c9)ccc8=O)c7)nc6)CC5)CC4)C3)cc12` (some centres unmarked) [ICT-0001229] displayed a DC50 in experiment [1] (Table 2) of less than 100 nM. Moreover, the IC50 in experiment [2] (Homo sapiens, MKN-45, 72 h) was less than 100 nM.
As for `N#Cc1cccc(-c2ccc(=O)n(Cc3cccc(-c4ncc(OCC5CCN(C(=O)CCCCN6CCN(c7ccc8c(=O)n(C9CCC(=O)NC9=O)ncc8c7)CC6)CC5)cn4)c3)n2)c1` (centres unmarked) [ICT-0001201, 3-(1-{[3-(5-{[1-(5-{4-[2-(2,6-dioxopiperidin-3-yl)-1-oxo-1,2-dihydropetalazine-6-yl]piperazine-1-yl}pentanoyl)piperidine-4-il]methoxy}pyrimidine-2-yl)phenyl]methyl}6-oxo-1,6-dihydropyridazine-3-yl)benzonitrile], the DC50 in experiment [1] (Table 2) is less than 100 nM. In addition, in experiment [2] (Homo sapiens, MKN-45, 72 h), the IC50 is less than 100 nM.
In turn, `Cc1nn(C2CCC(=O)NC2=O)c(=O)c2ccc(N3CCN(CC4CN(CC(=O)N5CCC(COc6cnc(-c7cccc(Cn8nc(-c9cccc(C#N)c9)ccc8=O)c7)nc6)CC5)C4)CC3)cc12` (centres unmarked) [ICT-0001253] yielded a DC50 in experiment [1] (Table 2) of less than 100 nM. The IC50 in experiment [2] (Homo sapiens, MKN-45, 72 h) was less than 100 nM.
`Cc1nn(C2CCC(=O)NC2=O)c(=O)c2cc(N3CCN(CCCCC(=O)N4CCC(COc5cnc(-c6cccc(Cn7nc(-c8cccc(C#N)c8)ccc7=O)c6)nc5)CC4)CC3)ccc12` (centres unmarked) [ICT-0001217] came in with a DC50 in experiment [1] (Table 2) of less than 100 nM. Further, the IC50 in experiment [2] (Homo sapiens, MKN-45, 72 h) is less than 100 nM.
In experiment [1] (Table 2), `Cc1nn(C2CCC(=O)NC2=O)c(=O)c2ccc(N3CCN(CCCCC(=O)N4CCC(COc5cnc(-c6cccc(Cn7nc(-c8cccc(C#N)c8)ccc7=O)c6)nc5)CC4)CC3)cc12` (centres unmarked) [ICT-0001176] registered a DC50 of less than 100 nM. The IC50 in experiment [2] (Homo sapiens, MKN-45, 72 h) was less than 100 nM.
